Measured values from patent US9340510B2, “Tetrahydroisoquinoline derivatives, pharmaceutical compositions and uses thereof” (Boehringer Ingelheim International GmbH, priority 2014, dated 2016).

Biological target: human ACC2 (Homo sapiens (Human), UniProt O00763)
Assay: ACC2 assay: spectrophotometric 384 well assay (coupled lactate dehydrogenase/pyruvate kinase)
Format: biochemical
Details: hACC2 construct lacking the 128 N-terminal amino acids, 25° C., 340 nm
Protocol: Spectrophotometric 384 Well Assay
Malonyl CoA formation by acetyl CoA carboxylases is stoichiometrically linked to the consumption of ATP. ACC2 activity is measured in a […] kinetic method measuring ADP generated during the ACC reaction using a coupled lactate dehydrogenase/pyruvate kinase reaction.
For biological testing, a human ACC2 construct which lacks the 128 amino acids at the N-terminus for increased solubility (nt 385-6966 in Genbank entry AJ575592) is cloned. The protein is then expressed in insect cells using a baculoviral expression system. Protein purification is performed by anion exchange.
All compounds are dissolved in dimethyl sulfoxide (DMSO) to a concentration of 10 mM.
Assay reactions are then carried out in 384-well plates, with hACC2 in an appropriate dilution and at final assay concentrations (f.c.) of 100 mM Tris (pH 7.5), 10 mM trisodium citrate, 25 mM KHCO3, 10 mM MgCl2, 0.5 mg/ml BSA, 3.75 mM reduced L-glutathione, 15 U/ml lactate dehydrogenase, 0.5 mM phosphoenolpyruvate, 15 U/ml pyruvate kinase, compounds at different concentrations at final DMSO concentrations of 1%.
The enzymatic reaction is then started by addition of a mixture of NADH, acetyl Coenzyme A (both […].) and ATP (500 uM f.c.). The decrease of the optical density (slope S) is then determined at 25° C. at a wavelength of 340 nm over 15 minutes in a spectrophotometric reader.
Each assay microtiter plate contains wells with vehicle instead of compound as controls for the non-inhibited enzyme (100% CTL; ‘HIGH’) and wells without acetyl-CoA as controls for non-specific NADH degradation (0% CTL; ‘LOW’).
The slope S is used for calculation of % CTL=(S(compound)−S(‘LOW’))/(S(‘HIGH’)−S(‘LOW’))*100. Compounds will give values between 100% CTL (no inhibition) and 0% CTL (complete inhibition).
For IC50 value determination, the sample slope in the presence of the test compound after subtraction of the low controls (S(compound)−S(‘LOW’)) are used.
An IC50 value is derived from the compound slopes at different dosages after subtraction of the low controls (S(compound)-S(‘LOW’)) by non-linear regression curve fitting (equation y=(A+((B−A)/(1+((C/x)^D))))).

Sequence of human ACC2 (O00763 129-2458): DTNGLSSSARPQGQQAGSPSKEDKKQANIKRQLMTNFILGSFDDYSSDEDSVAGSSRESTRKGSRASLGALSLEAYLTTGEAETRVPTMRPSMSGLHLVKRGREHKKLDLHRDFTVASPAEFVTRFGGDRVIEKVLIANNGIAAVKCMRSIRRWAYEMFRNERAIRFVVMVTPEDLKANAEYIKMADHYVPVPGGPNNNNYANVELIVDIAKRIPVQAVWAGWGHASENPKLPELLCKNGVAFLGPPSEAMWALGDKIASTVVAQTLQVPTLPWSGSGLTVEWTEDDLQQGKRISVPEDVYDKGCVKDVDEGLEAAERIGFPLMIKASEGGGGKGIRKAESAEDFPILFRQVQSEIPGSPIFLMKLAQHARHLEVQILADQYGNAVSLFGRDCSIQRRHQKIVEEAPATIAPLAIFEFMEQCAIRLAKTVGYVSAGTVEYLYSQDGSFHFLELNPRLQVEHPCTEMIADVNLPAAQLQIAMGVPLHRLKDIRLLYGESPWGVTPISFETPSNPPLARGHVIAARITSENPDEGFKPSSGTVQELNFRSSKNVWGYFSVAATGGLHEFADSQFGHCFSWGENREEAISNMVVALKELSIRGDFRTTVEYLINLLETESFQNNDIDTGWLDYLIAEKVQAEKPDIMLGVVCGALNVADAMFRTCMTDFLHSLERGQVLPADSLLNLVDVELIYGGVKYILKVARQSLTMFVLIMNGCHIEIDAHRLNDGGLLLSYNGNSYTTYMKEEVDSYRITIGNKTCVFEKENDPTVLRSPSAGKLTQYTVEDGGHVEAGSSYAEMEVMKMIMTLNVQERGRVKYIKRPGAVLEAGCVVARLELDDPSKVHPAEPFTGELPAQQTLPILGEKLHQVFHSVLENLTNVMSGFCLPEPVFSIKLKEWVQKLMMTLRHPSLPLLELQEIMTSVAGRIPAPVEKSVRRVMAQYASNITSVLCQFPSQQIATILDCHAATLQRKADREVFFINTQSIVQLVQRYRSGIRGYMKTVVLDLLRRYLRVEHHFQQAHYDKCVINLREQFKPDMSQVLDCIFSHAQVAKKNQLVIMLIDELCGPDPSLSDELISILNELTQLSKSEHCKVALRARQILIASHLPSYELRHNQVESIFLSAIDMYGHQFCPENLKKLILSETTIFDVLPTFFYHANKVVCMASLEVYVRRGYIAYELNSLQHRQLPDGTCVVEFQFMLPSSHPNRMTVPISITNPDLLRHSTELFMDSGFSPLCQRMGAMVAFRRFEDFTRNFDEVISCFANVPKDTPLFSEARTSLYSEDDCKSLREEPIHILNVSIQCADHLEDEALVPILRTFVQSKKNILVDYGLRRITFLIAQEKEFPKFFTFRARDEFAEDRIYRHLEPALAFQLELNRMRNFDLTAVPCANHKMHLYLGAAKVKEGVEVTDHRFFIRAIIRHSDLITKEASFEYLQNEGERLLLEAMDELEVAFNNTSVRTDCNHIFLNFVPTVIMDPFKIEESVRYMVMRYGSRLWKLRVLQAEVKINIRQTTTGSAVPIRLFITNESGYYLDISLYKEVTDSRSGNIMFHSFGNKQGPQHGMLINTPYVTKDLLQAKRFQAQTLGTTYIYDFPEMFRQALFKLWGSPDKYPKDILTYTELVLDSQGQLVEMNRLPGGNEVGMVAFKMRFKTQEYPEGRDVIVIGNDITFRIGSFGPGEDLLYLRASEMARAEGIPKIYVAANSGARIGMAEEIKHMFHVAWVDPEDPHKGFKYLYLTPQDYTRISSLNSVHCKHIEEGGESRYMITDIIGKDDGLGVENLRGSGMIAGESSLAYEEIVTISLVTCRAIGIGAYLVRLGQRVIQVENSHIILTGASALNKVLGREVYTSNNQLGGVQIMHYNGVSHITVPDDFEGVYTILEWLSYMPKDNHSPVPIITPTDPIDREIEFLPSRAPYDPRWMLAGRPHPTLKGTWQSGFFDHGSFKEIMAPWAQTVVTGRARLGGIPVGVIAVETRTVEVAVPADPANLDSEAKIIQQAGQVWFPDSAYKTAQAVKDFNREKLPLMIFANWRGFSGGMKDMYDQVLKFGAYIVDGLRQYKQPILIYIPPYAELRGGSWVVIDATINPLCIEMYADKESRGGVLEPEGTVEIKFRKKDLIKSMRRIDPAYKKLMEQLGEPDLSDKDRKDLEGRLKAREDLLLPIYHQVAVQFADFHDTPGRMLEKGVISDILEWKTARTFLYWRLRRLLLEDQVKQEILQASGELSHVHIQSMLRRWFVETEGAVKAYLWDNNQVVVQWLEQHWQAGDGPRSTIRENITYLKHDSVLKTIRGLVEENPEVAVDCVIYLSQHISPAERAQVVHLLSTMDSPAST

IC50 [µM]	SMILES
0.082	C[C@H](NC(=O)CO)c1ccc(CN2CCc3cc(OCC4CC4)ccc3C2)cc1 [Example 2.023]
0.08	CC(=O)NC(C)c1ccc(CN2CCc3c(ccc(OC4CCC4)c3Cl)C2)cc1 (stereo not drawn) [Example 1.037]
0.494	COc1ccc2c(c1F)CCN(Cc1ccc([C@H](C)NC(C)=O)cc1)C2C (stereo partly drawn) [Example 1.095]
0.449	CCOc1ccc2c(c1OC)CCN(Cc1ccc([C@H](C)NC(C)=O)cc1)C2C (stereo partly drawn) [Example 1.083]
0.054	CC(=O)NC(C)c1ccc(CN2CCc3c(ccc(OCCC(F)(F)F)c3Cl)C2)cc1 (stereo not drawn) [Example 1.034]
0.369	COC(=O)N[C@@H](C)c1ccc(CN2Cc3ccc(OCC4CC4)cc3C(O)C2)cc1 (stereo partly drawn) [Example 5.008]
0.095	CC(=O)NC(C)c1ccc(CN2CCc3cc(OCCC(F)(F)F)ccc3C2)cc1 (stereo not drawn) [Example 1.014]
0.886	C[C@H](NC(=O)C1CCC[C@@H]1N)c1ccc(CN2Cc3ccc(OCC4CC4)cc3C(F)C2)cc1 (stereo partly drawn) [Example 3.056]
0.097	CC(=O)Nc1nc(C)c(C(=O)N[C@@H](C)c2ccc(CN3CCc4c(cccc4OC4CCC4)C3)cc2)s1 [Example 2.012]
0.038	C[C@H](NC(=O)C1CCC1)c1ccc(CN2CCc3cc(OCC4CC4(F)F)ccc3C2)cc1 (stereo partly drawn) [Example 3.006]
0.193	C[C@H](NC(=O)C1CC1)c1ccc(CN2CCc3cc(OC4CCC4)ccc3C2)cc1 [Example 1.044]
0.192	COc1cccc2c1CCN(Cc1ccc([C@H](C)NC(C)=O)cc1)C2 [Example 7.001, N-{(S)-1-[4-(5-Methoxy-3,4-dihydro-1H-isoquinolin-2-ylmethyl)-phenyl]-ethyl}-acetamide]
0.041	COc1c(OCC2CCC2)ccc2c1CCN(Cc1ccc([C@H](C)NC(=O)C3CC3)cc1)C2 [Example 1.055]
0.34	COc1c(OCC(F)F)ccc2c1CCN(Cc1ccc([C@H](C)NC(C)=O)cc1)C2 [Example 1.071]
0.02	CC(=O)N[C@@H](C)c1ccc(CN2Cc3ccc(OCC4CC4)cc3C(F)C2)cc1 (stereo partly drawn) [Example 1.093]
0.055	COc1c(OCC2CC(F)(F)C2)ccc2c1CCN(Cc1ccc([C@H](C)NC(C)=O)cc1)C2 [Example 1.075]
0.166	CCC(=O)N[C@@H](C)c1ccc(CN2CCc3c(cccc3OC3CCC3)C2)cc1 [Example 2.013]
0.06	CCCOc1ccc2c(c1)CCN(Cc1ccc(C(C)NC(C)=O)cc1)C2 (stereo not drawn) [Example 1.017]
0.418	COc1c(OC(C)C)ccc2c1CCN(Cc1ccc([C@H](C)NC(C)=O)cc1)C2 [Example 1.069]
0.026	CCC(=O)Nc1nc(C)c(C(=O)N[C@@H](C)c2ccc(CN3Cc4ccc(OCC5CC5)cc4C(F)C3)cc2)s1 (stereo partly drawn) [Example 3.025]

IC50 [µM]	SMILES
0.263	COc1c(OCC2CC2(F)F)ccc2c1CCN(Cc1ccc([C@H](C)NC(C)=O)cc1)C2C (stereo partly drawn) [Example 1.084]
0.067	CC(=O)NC(C)c1ccc(CN2CCc3cc(OCC4CCC4)ccc3C2)cc1 (stereo not drawn) [Example 1.011]
0.104	COc1c(OCC2CC2(F)F)ccc2c1CCN(Cc1ccc([C@H](C)NC(C)=O)cc1)C2 (stereo partly drawn) [Example 1.064]
0.104	C[C@H](NC(=O)C1CC1)c1ccc(CN2CCc3c(cccc3C(F)(F)F)C2)cc1 [Example 2.007]
0.326	CCCOc1cccc2c1CCN(Cc1ccc(C(C)NC(C)=O)cc1)C2 (stereo not drawn) [Example 1.019]
0.252	CC(=O)NC(C)c1ccc(CN2CCc3c(cccc3OC(C)C)C2)cc1 (stereo not drawn) [Example 1.005]
0.266	C[C@H](NC(=O)CN)c1ccc(CN2Cc3ccc(OCC4CC4)cc3C(F)C2)cc1 (stereo partly drawn) [Example 3.058]
0.089	C[C@H](NC(=O)CO)c1ccc(CN2CCc3cc(OC[C@@H]4CC4(F)F)ccc3C2)cc1 [Example 2.025]
0.051	COc1c(OCC2CC(F)(F)C2)ccc2c1CCN(Cc1ccc([C@H](C)NC(=O)C3CC3)cc1)C2 [Example 1.056]
0.139	COc1c(OCC2CC2)ccc2c1CCN(Cc1ccc([C@H](C)NC(=O)C3CC3)cc1)C2 [Example 1.048]
0.163	C[C@H](NC(=O)C1CC1)c1ccc(CN2CCc3cc(OCC(F)F)ccc3C2)cc1 [Example 1.046]
0.296	COC1CN(Cc2ccc([C@H](C)NC(C)=O)cc2)Cc2ccc(OCC3CC3)cc21 (stereo partly drawn) [Example 1.094]
0.217	C[C@H](NC(=O)C1(O)CC1)c1ccc(CN2CCc3cc(OC[C@@H]4CC4(F)F)ccc3C2)cc1 [Example 2.028]
0.031	C[C@H](NC(=O)C1CC1)c1ccc(CN2CCc3cc(OC[C@@H]4CC4(F)F)ccc3C2)cc1 [Example 1.051]
0.079	CCCOc1ccc2c(c1OC)CCN(Cc1ccc([C@H](C)NC(C)=O)cc1)C2 [Example 1.074]
0.038	CCC(=O)N[C@@H](C)c1ccc(CN2Cc3ccc(OCC4CC4(F)F)cc3C(F)C2)cc1 (stereo partly drawn) [Example 3.027]
0.136	CC(=O)N[C@@H](C)c1ccc(CN2CCc3c(ccc(OC(C)C)c3Br)C2)cc1 [Example 1.079]
0.392	CC(=O)N[C@@H](C)c1ccc(CN2Cc3ccc(OC(C)C)cc3C(O)C2)cc1 (stereo partly drawn) [Example 1.098]
0.45	C[C@H](NC(=O)CC#N)c1ccc(CN2CC(=O)c3cc(OCC4CC4(F)F)ccc3C2)cc1 (stereo partly drawn) [Example 2.04]
0.089	CC(=O)N[C@@H](C)c1ccc(CN2CC(=O)c3cc(OCc4ccccc4)ccc3C2)cc1 [Example 1.089]

IC50 [µM]	SMILES
0.15	C[C@H](NC(=O)C1(O)CC1)c1ccc(CN2CCc3cc(OCC4CC4)ccc3C2)cc1 [Example 2.024]
0.12	C[C@H](NC(=O)C1CC1)c1ccc(CN2CCc3c(ccc(OCC4CC4)c3Cl)C2)cc1 [Example 1.050]
0.077	C[C@H](NC(=O)[C@H]1C[C@H](F)C1)c1ccc(CN2Cc3ccc(OCC4CC4(F)F)cc3C(F)C2)cc1 (stereo partly drawn) [Example 3.031]
0.448	C[C@H](NC(=O)[C@H]1C[C@H](F)C1)c1ccc(CN2Cc3ccc(OCC4CC4)cc3C(O)C2)cc1 (stereo partly drawn) [Example 3.049]
0.055	C[C@H](NC(=O)CO)c1ccc(CN2Cc3ccc(OCC4CC4(F)F)cc3C(F)C2)cc1 (stereo partly drawn) [Example 2.034]
0.02	C[C@H](NC(=O)N(C)C)c1ccc(CN2CCc3cc(OCC4CC4(F)F)ccc3C2)cc1 (stereo partly drawn) [Example 5.003]
0.102	COc1c(OCC(C)C)ccc2c1CCN(Cc1ccc([C@H](C)NC(=O)C3CC3)cc1)C2 [Example 1.057]
0.122	Cc1[nH]ncc1C(=O)N[C@@H](C)c1ccc(CN2CCc3cc(OCC4CC4(F)F)ccc3C2)cc1 (stereo partly drawn) [Example 3.012]
0.715	CC(=O)N[C@@H](C)c1ccc(CN2CCc3c(cccc3C(=O)NCc3ccccc3)C2)cc1 [Example 8.001, 2-[4-((S)-1-Acetylamino-ethyl)-benzyl]-1,2,3,4-tetrahydro-isoquinoline-5-carboxylic acid benzylamide]
0.407	CCOc1cccc2c1CCN(Cc1ccc(C(C)NC(C)=O)cc1)C2 (stereo not drawn) [Example 1.018]
0.245	C[C@H](NC(=O)C1CCC(=O)O1)c1ccc(CN2Cc3ccc(OCC4CC4)cc3C(F)C2)cc1 (stereo partly drawn) [Example 3.054]
0.071	CC(C)Oc1ccc2c(c1)CCN(Cc1ccc([C@H](C)NC(=O)C3CC3)cc1)C2 [Example 1.047]
0.081	C[C@H](NC(=O)Cc1cncnc1)c1ccc(CN2CCc3cc(OC[C@@H]4CC4(F)F)ccc3C2)cc1 [Example 2.026]
0.459	C[C@H](NC(=O)CC(=O)N(C)C)c1ccc(CN2CCc3cc(OCC4CC4)ccc3C2)cc1 [Example 2.03]
0.028	CC(=O)Nc1nc(C)c(C(=O)N[C@@H](C)c2ccc(CN3CCc4cc(OCC5CC5(F)F)ccc4C3)cc2)s1 (stereo partly drawn) [Example 2.020]
0.162	C[C@H](NC(=O)c1cnn(C)c1Cl)c1ccc(CN2CCc3cc(OCC4CC4(F)F)ccc3C2)cc1 (stereo partly drawn) [Example 3.016]
0.049	CC(=O)NC(C)c1ccc(CN2CCc3c(ccc(OCC4CC4(F)F)c3Cl)C2)cc1 (stereo not drawn) [Example 1.025]
0.144	C[C@H](NC(=O)c1cncs1)c1ccc(CN2CCc3c(cccc3OC3CCC3)C2)cc1 [Example 2.014]

SMILES	IC50 [µM]
CCC(=O)N[C@@H](C)c1ccc(CN2CCc3cc(OCC4CC4(F)F)ccc3C2)cc1 (stereo partly drawn) [Example 4.001, N—((S)-1-{4-[6-(2,2-Difluoro-cyclopropylmethoxy)-3,4-dihydro-1H-isoquinolin-2-ylmethyl]-phenyl}-ethyl)-propionamide]	0.037
C[C@H](NC(=O)CC#N)c1ccc(CN2CCc3cc(OCC4CC4(F)F)ccc3C2)cc1 (stereo partly drawn) [Example 3.001, 2-Cyano-N—((S)-1-{4-[6-(2,2-difluoro-cyclopropylmethoxy)-3,4-dihydro-1H-isoquinolin-2-ylmethyl]-phenyl}-ethyl)-acetamide]	0.035
